These are literature values, as cited in patent US8883831B2, “Compositions and methods for minimizing or reversing agonist-induced desensitization” (PharmoRx Therapeutics, Inc., priority 2008, dated 2014).

The target of series [1] is pentapeptide segment at the carboxy terminal of Filamin A (Homo sapiens, UniProt P21333). The conditions noted are these: read-out: binding affinity.
The subject of series [2] is chronic pain model in intact rodents. The conditions noted are these: ultra-low dose, absence of exogenously administered opioid agonists.

Sequence of pentapeptide segment at the carboxy terminal of Filamin A (P21333 whole entry): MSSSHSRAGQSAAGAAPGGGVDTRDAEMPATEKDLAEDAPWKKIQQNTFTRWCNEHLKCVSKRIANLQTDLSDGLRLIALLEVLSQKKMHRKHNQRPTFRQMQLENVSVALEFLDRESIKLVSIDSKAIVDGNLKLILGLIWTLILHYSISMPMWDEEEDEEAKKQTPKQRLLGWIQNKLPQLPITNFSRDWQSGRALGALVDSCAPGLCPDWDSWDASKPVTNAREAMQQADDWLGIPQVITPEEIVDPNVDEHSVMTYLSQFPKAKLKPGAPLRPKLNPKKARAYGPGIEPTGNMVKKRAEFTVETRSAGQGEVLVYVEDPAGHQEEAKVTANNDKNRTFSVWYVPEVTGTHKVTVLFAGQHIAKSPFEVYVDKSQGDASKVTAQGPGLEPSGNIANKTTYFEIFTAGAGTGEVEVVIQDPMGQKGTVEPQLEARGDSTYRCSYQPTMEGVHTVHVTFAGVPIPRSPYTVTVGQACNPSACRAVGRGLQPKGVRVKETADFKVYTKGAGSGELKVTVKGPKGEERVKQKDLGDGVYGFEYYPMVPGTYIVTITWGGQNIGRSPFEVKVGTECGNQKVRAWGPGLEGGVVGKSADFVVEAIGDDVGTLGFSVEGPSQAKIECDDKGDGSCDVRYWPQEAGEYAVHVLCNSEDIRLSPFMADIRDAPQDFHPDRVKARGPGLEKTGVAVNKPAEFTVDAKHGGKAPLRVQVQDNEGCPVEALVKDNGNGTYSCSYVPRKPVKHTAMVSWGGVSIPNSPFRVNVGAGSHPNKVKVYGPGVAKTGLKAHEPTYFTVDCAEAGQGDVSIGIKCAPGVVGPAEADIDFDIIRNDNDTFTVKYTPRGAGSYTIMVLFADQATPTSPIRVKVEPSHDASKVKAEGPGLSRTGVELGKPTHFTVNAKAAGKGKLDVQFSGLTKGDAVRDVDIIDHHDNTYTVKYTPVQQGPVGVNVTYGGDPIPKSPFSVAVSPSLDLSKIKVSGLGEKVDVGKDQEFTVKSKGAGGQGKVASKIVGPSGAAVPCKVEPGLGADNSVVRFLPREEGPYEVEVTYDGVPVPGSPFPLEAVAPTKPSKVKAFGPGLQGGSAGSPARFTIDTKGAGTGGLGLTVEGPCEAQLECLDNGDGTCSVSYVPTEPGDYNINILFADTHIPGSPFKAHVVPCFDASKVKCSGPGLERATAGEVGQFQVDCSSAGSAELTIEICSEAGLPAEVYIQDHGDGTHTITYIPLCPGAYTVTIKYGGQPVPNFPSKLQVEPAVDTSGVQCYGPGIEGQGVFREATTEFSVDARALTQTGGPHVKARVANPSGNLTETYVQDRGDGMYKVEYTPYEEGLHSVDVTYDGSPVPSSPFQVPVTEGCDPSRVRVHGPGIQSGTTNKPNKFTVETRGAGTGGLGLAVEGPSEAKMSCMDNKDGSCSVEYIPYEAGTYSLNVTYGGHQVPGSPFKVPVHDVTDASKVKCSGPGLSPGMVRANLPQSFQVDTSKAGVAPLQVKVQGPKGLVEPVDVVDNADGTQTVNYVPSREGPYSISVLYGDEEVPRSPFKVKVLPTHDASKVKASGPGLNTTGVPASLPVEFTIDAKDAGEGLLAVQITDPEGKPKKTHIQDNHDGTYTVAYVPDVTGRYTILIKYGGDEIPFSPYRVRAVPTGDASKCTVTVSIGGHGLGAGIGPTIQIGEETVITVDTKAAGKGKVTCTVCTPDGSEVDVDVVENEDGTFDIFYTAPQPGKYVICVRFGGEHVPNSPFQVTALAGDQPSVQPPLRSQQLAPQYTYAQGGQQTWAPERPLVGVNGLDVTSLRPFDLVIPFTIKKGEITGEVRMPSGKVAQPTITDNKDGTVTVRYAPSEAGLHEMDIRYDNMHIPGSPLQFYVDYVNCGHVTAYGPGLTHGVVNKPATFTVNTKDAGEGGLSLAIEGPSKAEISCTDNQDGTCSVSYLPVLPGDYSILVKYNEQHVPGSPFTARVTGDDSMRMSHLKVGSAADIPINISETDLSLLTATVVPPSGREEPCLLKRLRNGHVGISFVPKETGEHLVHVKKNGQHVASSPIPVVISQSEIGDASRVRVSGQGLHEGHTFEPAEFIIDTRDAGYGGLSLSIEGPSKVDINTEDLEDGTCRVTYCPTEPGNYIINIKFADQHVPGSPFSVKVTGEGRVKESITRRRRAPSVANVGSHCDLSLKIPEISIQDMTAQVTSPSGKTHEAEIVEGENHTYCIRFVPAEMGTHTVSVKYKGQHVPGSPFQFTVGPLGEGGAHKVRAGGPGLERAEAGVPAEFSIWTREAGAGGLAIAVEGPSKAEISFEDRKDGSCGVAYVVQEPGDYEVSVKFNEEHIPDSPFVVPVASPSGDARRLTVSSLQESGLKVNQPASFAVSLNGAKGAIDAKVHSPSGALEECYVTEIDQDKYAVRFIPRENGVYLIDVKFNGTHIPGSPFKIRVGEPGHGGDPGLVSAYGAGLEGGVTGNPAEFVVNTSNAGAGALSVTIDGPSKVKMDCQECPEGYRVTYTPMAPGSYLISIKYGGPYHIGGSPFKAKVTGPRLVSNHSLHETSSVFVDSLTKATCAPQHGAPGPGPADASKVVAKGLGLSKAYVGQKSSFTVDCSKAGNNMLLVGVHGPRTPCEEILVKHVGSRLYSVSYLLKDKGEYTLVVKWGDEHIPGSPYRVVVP

In the case of `O=C1CC[C@@]2(O)[C@H]3Cc4ccc(O)c5c4[C@@]2(CCN3CC2CC2)[C@H]1O5` [naltrexone], the Kd in series [1] is 4 pM. Also, the “effect in chronic pain model” value in series [2] was “no effect”.
